# From PMC7728372, “Synthesis and Biological Evaluation of Amino Chalcone Derivatives as Antiproliferative Agents” (Molecules, 2020)
# Like-named read-outs stand apart in the source and are kept apart here.
# Tests used:
# K562 cell line = test system: K562 cell line; design: method as in PMID 19837593; settings: cited from earlier work
# HepG2 cells = test system: HepG2 cells; design: method as in PMID 23471882; settings: cited from earlier work
# MCF-7 cells [1] = settings: cited from earlier work
# hCA IX = test system: hCA IX; design: method as in PMID 29852328; settings: cited from earlier work
# HCT-116 cells = test: MTT antiproliferative assay, HCT-116 cells; format: cell-based, human
# Experimental: (§1) Cell lines used were cultured in humidified incubator at 37 °C and 5% CO2. The RPMI-1640 medium was supplemented with 10% fetal bovine serum, penicillin (100 U/mL) and streptomycin (0.1 mg/mL).
# (§2) Cell lines were seeded into […] and incubated for 24 h. Then cells were treated with different concentrations of compounds. And after another 48 h, MTT reagent (20 μL per well) was added and then incubated at 37 °C for 4 h. Formazan was then dissolved with DMSO. Absorbencies of formazan solution were measured at […]. The IC50 values of tested compounds were calculated by SPSS version 17.0.
# MCF-7 cells [2] = test: MTT antiproliferative assay, MCF-7 cells; format: cell-based, human
# Experimental: as §1, §2
# GES-1 cells = test: MTT antiproliferative assay, non-cancer GES-1 cells; format: cell-based; settings: for IC50: non-cancer cell line, exposure for 48 h; for Fold Selectivity A: A = IC50 (GES-1)/IC50 (MGC-803)
# Experimental: as §1, §2
# PC-3 cells = test system: PC-3 cells; design: method as in PMID 27777009; settings: cited from earlier work
# VEGFR-2/KDR kinase = molecular target: VEGFR-2/KDR kinase; design: method as in PMID 27777009; settings: cited from earlier work
# MGC-803 cells [3] = test system: MGC-803 cells; design: method as in PMID 27423479, PMID 30763884, PMID 27213317; settings: earlier work of the group; cited from earlier work
# SKVO3 cells = test system: SKVO3 cells; design: method as in PMID 27213819; settings: cited from earlier work
# MGC-803 cells [4] = test: MTT antiproliferative assay, MGC-803 cells; format: cell-based, human; settings: exposure for 48 h
# Experimental: as §1, §2
# MGC-803 cells [5] = test: Cell colony formation assay; format: cell-based, human
# Experimental: To check the effect of compound 13e on cell proliferation, cell colony formatting assay was performed. […] Beside the activity on cell apoptosis, compound 13e inhibited cell proliferation of MGC-803 cells as well.
# (§3) In this work, some other assays including colony formation assay and cell apoptosis assay were referred to our previous work.
# (§4) Figure 5 Compound 13e inhibited cell proliferation. (A,B) The colony formation of MGC-803 cells after the treatment with indicated concentrations of compound 13e for 7 days; (C) Cell proliferation related proteins in MGC-803 cells of compound 13e after the treatment with indicated concentrations of 13e for 24 h.
# MGC-803 cells [6] = test: DAPI fluorescent staining of cell nucleus; format: cell-based, human; settings: MGC-803, high dose treated group, 48 h
# Experimental: Cells were seeded in 6-welled plate, then treated with different concentration of compounds for 48 h. The treated and untreated cells were washed with PBS buffer. Then fixed with 4% paraformaldehyde for 10 min in dark. After washed with PBS buffer, cells were stained by 2 μg/mL DAPI solution containing 0.1% triton X-100 for 30 min. Discard the solution and wash the cells with PBS buffer. Capture the images with a fluorescence microscope.
# (§5) Figure 6 Compound 13e induced cell apoptosis. (A) Cell nucleus (upper panel) and morphology (lower panel) of compound 13e treated (48 h) or untreated MGC-803 cells; (B) Compound 13e induced apoptosis of MGC-803 cells. After incubated with compound 13e for 48 h, MGC-803 cells were detected by Annexin V/PI with flow cytometric analysis. The Q3 represents live cells, Q4 represents early/primary apoptotic cells, Q2 represents late/secondary apoptotic cells and Q1 represents cells necrosis. (C) The percentage of apoptosis (early and late apoptosis) cells increased dependently with various concentrations of compound 13e. Date are represented as mean ± SD of three independent experiments.
# MGC-803 cells [7] = test: Annexin V/PI flow cytometry apoptosis assay; format: cell-based, human; settings: MGC-803, 6 μmol/L, 48 h; control less than 10%
# Experimental: as §3, §5
# MGC-803 cells [8] = test: Growth curves of MGC-803 cells; format: cell-based, human; settings: MGC-803, after treatment for 72 h
# Experimental: Since gastric cancer cell line MGC-803 cells was more sensitive to compound 13e, MGC-803 cells were selected to do further study. The cell viabilities of MGC-803 cells after the treatment with different concentrations of compound 13e for 48 h were presented in Figure 4A, as the concentration rise, cell viability decreased obviously. […] The trends of cell growth were curved with results of cell viabilities after compound 13e treatment. […] We also tested the inhibition activity of compound 13e on normal gastric epithelial cell GES-1.
# Figure 4 (A–C) MGC-803 cells inhibition activity of compound 13e […]. (A) Cell viabilities of MGC-803 cells, MGC-803 cells were treated with indicated concentrations of compound 13e for 48 h; (B) Growth curves of MGC-803 cells after the treatment with indicated concentrations of compound 13e for different hours. (C) Cell viabilities of MGC-803 cells and GES-1 cells, cells were treated with indicated concentrations of compound 13e for 48 h. The results shown were representative of three independent experiments.
# [9] = test system: CyclinB1 and CDK1 in MGC-803 cells; test: Western blotting of cell proliferation related proteins; format: cell-based, human; settings: MGC-803, western blot, 24 h
# Experimental: (§6) Gastric cancer cells were seeded in dishes and treated with 13e or DMSO. After 48 h, MGC-803 cells were collected and then lysed. The denatured lysates of each groups were electrophoretic separated in SDS-PAGE. Proteins were then transferred onto PVDF membranes from gels. After blocking for 2 h, membranes were incubated with primary antibodies conjugation. Then, the membranes were washed and incubated with 2nd antibodies. At last, specific proteins were detected.
# as §4
# [10] = test system: apoptosis related proteins in MGC-803 cells; test: Western blotting of apoptosis related proteins; format: cell-based, human; settings: MGC-803, 1.5-6 μmol/L, 48 h
# Experimental: as §6
# Figure 7 Compound 13e regulated apoptosis related proteins. (A,B) The expression of cell apoptosis related proteins were detected by western blotting. MGC-803 cells were incubated with various concentrations compound 13e (0 μmol/L, 1.5 μmol/L, 3 μmol/L, 6 μmol/L) for 48 h. Date are represented as mean ± SD of three independent experiments.
# [11] = Homo sapiens, HCT-116, exposure for 48 h
# [12] = Homo sapiens, MCF7, exposure for 48 h
compound,measurement,setting,value
"COc1ccc(/C=C/C(=O)c2cc(OC)c(OC)c(OC)c2)cc1 [Compound 2, (E)-3-(4-methoxyphenyl)-1-(3,4,5-trimethoxyphenyl)prop-2-en-1-one]",IC50,K562 cell line,4.5 µM
"COc1ccc(/C=C/C(=O)c2ccc(OC)c3c2OC(C)(C)C=C3)cc1 [Compound 3, millepachine]",IC50,HepG2 cells,1.51 µM
O=C(/C=C/c1cn(S(=O)(=O)c2ccc(Cl)cc2Cl)c2ccccc12)c1ccncc1 [Compound 4],IC50,MCF-7 cells [1],12.2 µM
same,IC50,hCA IX,0.13 µM
"O=c1[nH]cc(F)c(=O)[nH]1 [Compound 5-Fu, reference compound]",IC50,HCT-116 cells; exposure for 48 h,14.4 ± 1.73 µM
same,IC50,MCF-7 cells [2]; exposure for 48 h,12.1 ± 1.28 µM
same,IC50,GES-1 cells,8.22 µM
CNC(=O)c1cc(Oc2ccc(C(=O)/C=C/c3cc(OC)c(OC)c(OC)c3)cc2)ccn1 [Compound 5],IC50,PC-3 cells,3.15 µM
same,IC50,VEGFR-2/KDR kinase,0.72 µM
same,IC50,MCF-7 cells [1],3.88 µM
COc1cc(/C=C/C(=O)c2ccc(NC(=O)CSC(=S)N3CCN(CCO)CC3)cc2)cc(OC)c1OC [Compound 6],IC50,MGC-803 cells [3],1.74 µM
COc1cc(/C=C/C(=O)c2ccc(OCCCn3cc(CSc4nccs4)nn3)cc2)cc(OC)c1OC [Compound 7],IC50,MGC-803 cells [3],4.26 µM
COc1ccc(N(C)c2cc(=O)oc3ccccc23)cc1NC(=O)CCCCl [Compound 9],IC50,SKVO3 cells,0.0035 µM
COc1cc(/C=C/C(=O)c2ccc(NC(=O)CCl)cc2)cc(OC)c1OC [Compound 13c],IC50,"MGC-803 cells [4]; Homo sapiens, MGC-803, 48 h",1.88 ± 0.22 µM
same,IC50,HCT-116 cells; [11],2.83 ± 0.03 µM
same,melting point,,182 to 183 °C
same,IC50,MCF-7 cells [2]; [12],3.12 ± 0.01 µM
COc1cc(/C=C/C(=O)c2ccc(NC(=O)CCCl)cc2)cc(OC)c1OC [Compound 13d],IC50,"MGC-803 cells [4]; Homo sapiens, MGC-803, 48 h",1.64 ± 0.18 µM
same,IC50,HCT-116 cells; [11],2.4 ± 0.26 µM
same,melting point,,183 to 184 °C
same,IC50,MCF-7 cells [2]; [12],2.12 ± 0.13 µM
COc1cc(/C=C/C(=O)c2ccc(NC(=O)CCCCl)cc2)cc(OC)c1OC [Compound 13e],Concentration at which colonies were evidently reduced,"MGC-803 cells [5]; MGC-803, 7 days treatment, compared to control",greater than 0.5 μmol/L
same,Colony formation of MGC-803 cells,MGC-803 cells [5]; result in words,inhibited the colony formation
same,Cell nucleus morphology (DAPI),MGC-803 cells [6],concentrated and fragmented
same,IC50,"MGC-803 cells [4]; Homo sapiens, MGC-803, 48 h",1.54 µM
same,IC50,MGC-803 cells [4],1.52 ± 0.12 µM
same,Rate of apoptosis cells (early and late),MGC-803 cells [7],86.7%
same,IC50,HCT-116 cells; [11],1.83 ± 0.2 µM
same,melting point,,170 to 171 °C
same,IC50,MCF-7 cells [2]; [12],2.54 ± 0.18 µM
same,Dose from which cell growth is inhibited,MGC-803 cells [8],≥ 0.75 µmol/L
same,Fold Selectivity A,GES-1 cells,5.4 fold
same,IC50,"GES-1 cells; Homo sapiens, GES1",8.22 µM
same,Concentration range of selective inhibitory effect on cancer cells,"GES-1 cells; MGC-803 versus GES-1, 48 h",below 2 μmol/L
same,Inhibition activity on GES-1 compared with MGC-803,"GES-1 cells; cell viability, 48 h, Figure 4C",lower inhibition activity on GES-1 than gastric cancer cell MGC-803
same,CDK1 protein level,[9],down-regulated
same,CyclinB1 protein level,[9],down-regulated
same,Bcl-2 expression,[10],down regulated
same,Caspase3/7,[10],cleaved (activated)
same,Caspase8,[10],cleaved (activated)
same,Caspase12,[10],cleaved (activated)
same,DR5 expression,[10],up regulated
same,Noxa expression,[10],up regulated
same,PARP,[10],cleaved
same,XIAP expression,[10],decreased
same,c-IAP1 expression,[10],decreased
same,t-Bid,[10],increase
COc1cc(/C=C/C(=O)c2ccc(NC(=O)CCCCCl)cc2)cc(OC)c1OC [Compound 13f],IC50,"MGC-803 cells [4]; Homo sapiens, MGC-803, 48 h",3.01 ± 0.11 µM
same,IC50,HCT-116 cells; [11],4.28 ± 0.32 µM
same,melting point,,125 to 126 °C
same,IC50,MCF-7 cells [2]; [12],4.45 ± 0.11 µM
"C=CC(=O)Nc1ccc(/C=C/C(=O)c2cc(OC)c(OC)c(OC)c2)cc1 [Compound 13g, (E)-N-(4-(3-oxo-3-(3,4,5-trimethoxyphenyl)prop-1-en-1-yl)phenyl) acrylamide]",IC50,"MGC-803 cells [4]; Homo sapiens, MGC-803, 48 h",1.83 ± 0.2 µM
same,IC50,MGC-803 cells [4],1.52 µM
same,IC50,HCT-116 cells; [11],1.12 ± 0.11 µM
same,melting point,,178 to 179 °C
same,IC50,MCF-7 cells [2]; [12],2.06 ± 0.21 µM
same,Fold Selectivity A,GES-1 cells,5.4 fold
same,IC50,"GES-1 cells; Homo sapiens, GES1",8.22 µM
O=C(CCCCl)Nc1ccc(C(=O)/C=C/c2ccccc2)cc1 [Compound 13h],IC50,"MGC-803 cells [4]; Homo sapiens, MGC-803, 48 h",22.1 ± 0.75 µM
same,IC50,HCT-116 cells; [11],13.1 ± 0.51 µM
same,melting point,,161 to 162 °C
same,IC50,MCF-7 cells [2]; [12],22.2 ± 0.83 µM
O=C(CCCCl)Nc1ccc(C(=O)/C=C/c2ccc(F)cc2)cc1 [Compound 13j],IC50,"MGC-803 cells [4]; Homo sapiens, MGC-803, 48 h",> 40 µM
same,IC50,HCT-116 cells; [11],> 40 µM
same,melting point,,167 to 168 °C
same,IC50,MCF-7 cells [2]; [12],> 40 µM
COc1ccc(/C=C/C(=O)c2ccc(NC(=O)CCCCl)cc2)cc1OC [Compound 13l],IC50,"MGC-803 cells [4]; Homo sapiens, MGC-803, 48 h",16.3 ± 0.65 µM
same,IC50,HCT-116 cells; [11],> 40 µM
same,melting point,,166 to 167 °C
same,IC50,MCF-7 cells [2]; [12],10.1 ± 0.73 µM
(E)-4-chloro-N-(4-(3-oxo-3-(p-tolyl)prop-1-en-1-yl)phenyl)butanamide [Compound 13i],IC50,MGC-803 cells [4],16.8 ± 0.82 µM
same,IC50,HCT-116 cells; exposure for 48 h,13.1 ± 0.61 µM
same,IC50,MCF-7 cells [2]; exposure for 48 h,17.6 ± 0.51 µM
(E)-N-(4-(3-(4-bromophenyl)-3-oxoprop-1-en-1-yl) phenyl)-4-chlorobutanamide [Compound 13k],IC50,MGC-803 cells [4],> 40 µM
same,IC50,HCT-116 cells; exposure for 48 h,> 40 µM
same,IC50,MCF-7 cells [2]; exposure for 48 h,> 40 µM
"(E)-N-(4-(3-oxo-3-(3,4,5-trimethoxyphenyl) prop-1-en-1-yl) phenyl) acetamide [Compound 13a]",IC50,MGC-803 cells [4],3.81 ± 0.22 µM
same,IC50,MCF-7 cells [2]; exposure for 48 h,3.56 ± 0.17 µM
"(E)-N-(4-(3-oxo-3-(3,4,5-trimethoxyphenyl) prop-1-en-1-yl)phenyl) pentanamide [Compound 13b]",IC50,MGC-803 cells [4],4.08 ± 0.24 µM
same,IC50,HCT-116 cells; exposure for 48 h,6.72 ± 0.28 µM
same,IC50,MCF-7 cells [2]; exposure for 48 h,3.11 ± 0.34 µM
